The values that follow come from US6548550B1, “Pharmaceutical compositions containing N-palmitoylethanolamide and use thereof in the veterinary field” (Innovet Italia S.r.l., priority 2002, dated 2003).

Like-named read-outs stand apart in the source and are kept apart here.

Data set [1] has as its system eosinophilic skin condition in cats. As to conditions: for SIGNS plaque-granuloma-miliary scabs % improved / SIGNS plaque-granuloma-miliary scabs % unchanged / SIGNS plaque-granuloma-miliary scabs % worsened / SYMPTOMS pruritis-erythema-alopecia % improved / SYMPTOMS pruritis-erythema-alopecia % unchanged / SYMPTOMS pruritis-erythema-alopecia % worsened: cats. The procedure: Included in the investigation were 15 cats of European race with short hair, of which 9 were female and 6 were male, with ages of between 7 and 123 months. […] A numerical evaluation relating to the intensity and location of the signs and symptoms was assigned to each individual animal in accordance with the P.A.S.I. (psoriasis area severity index) “score” (Marks R. et al., 1989, Arch. Dermatol., 125:235-240). The improvements in the clinical signs and in the associated lesions were evaluated on the 15th and 30th days of treatment. The treatment consisted of a preparation in accordance with Example 3 of the pharmaceutical preparations given below, containing 120 mg of micronized N-palmitoylethanolamide. The active ingredient was administered in a proportion of 10 mg/kg/die for 30 days.

Data set [2] in a line: Particle size analysis of micronized PEA (Mastersizer). The format is physicochemical. The procedure: The micronization of PEA and its co-micronization with excipients were performed with compressed-air turbine micronizing apparatus. This apparatus is known and is not therefore described in greater detail. The product obtained was subjected to analysis of the particles with Mastersizer, μ version apparatus from Malvern Instruments Co. UK.

Take `CCCCCCCCCCCCCCCC(=O)NCCO` [PEA, N-palmitoylethanolamide]: the “side effects compared with cortisones” value in data set [1] (in vivo) was “does not have the serious side effects typical of these drugs”. In addition, the “quantity % of particles <6μ” value in data set [2] (particle size <6μ) is 80%. For the same molecule, the “quantity % of particles <10μ” value in data set [2] (particle size <10μ) is roughly 96% approx. The “quantity % of particles >14μ” value in data set [2] (particle size >14μ) is reported as “traces”.

`CCCCCCCCCCCCCCCC(=O)NCCO` [non-micronized PEA, N-palmitoylethanolamide]: in data set [1] (T15 (15th day of treatment)), the “SIGNS plaque-granuloma-miliary scabs % improved” value was determined as 14.6%, the “SIGNS plaque-granuloma-miliary scabs % unchanged” value is 85.4%, the “SIGNS plaque-granuloma-miliary scabs % worsened” value amounted to 0% and the “SYMPTOMS pruritis-erythema-alopecia % improved” value was 8.2%. Moreover, in data set [1] (T15 (15th day of treatment)), the “SYMPTOMS pruritis-erythema-alopecia % unchanged” value came to 91.8% and the “SYMPTOMS pruritis-erythema-alopecia % worsened” value came out at 0%. In data set [1] (T30 (30th day of treatment)), the “SIGNS plaque-granuloma-miliary scabs % improved” value is 51.4%, the “SIGNS plaque-granuloma-miliary scabs % unchanged” value is 48.6%, the “SIGNS plaque-granuloma-miliary scabs % worsened” value is 0% and the “SYMPTOMS pruritis-erythema-alopecia % improved” value is 52%. In data set [1] (T30 (30th day of treatment)), the “SYMPTOMS pruritis-erythema-alopecia % unchanged” value amounted to 48% and the “SYMPTOMS pruritis-erythema-alopecia % worsened” value came to 0%.
